The test system of data set [1] is MCF-7 cells. Kind of data set: MTT cytotoxicity assay, MCF-7. The data set is classed as cell-based, human. The settings on record: MCF7; human breast cancer cell line MCF-7, MTT method, 24 h treatment, mean ± SD; read-out: IC50 MCF-7. The procedure:
(§1) The anticancer activities of compounds 17–24, 41–56 against MCF-7, MDA-MB-231 and hTERT-RPE1 cells were determined in vitro by an MTT assay. […] The data was calculated and presented as IC50 values in Table 1.
(§2) The cytotoxicities of the compounds were evaluated by the MTT assay, which is based on the conversion of MTT to formazan crystals by mitochondrial dehydrogenases. […] The medium was incubated with 20 μL of 5 mg/mL MTT solution for 3 h in a humidified incubator containing 5% CO2. The purple coloured formazan crystals formed in the wells were dissolved in DMSO and their absorbances were measured at 570 nm with a microplate reader. Cell viability was expressed as a percentage of the value in control cultures.
Background: Tetrazolium dyes change colour on reduction, which living cells bring about.

Data set [2] relates to hTERT-RPE1 cells. The data set can be described thus: MTT cytotoxicity assay, hTERT-RPE1 normal cells. The data set is classed as cell-based, human. The conditions noted are these: normal human retinal pigment epithelial cell line hTERT-RPE1, MTT method, 24 h treatment, mean ± SD; read-out: IC50 hTERT-RPE1. The procedure:
as §1, §2

Data set [3] deals with MDA-MB-231 cells. The data set can be described thus: MTT cytotoxicity assay, MDA-MB-231. The data set is classed as cell-based, human. The settings on record: human breast cancer cell line MDA-MB-231, MTT method, 24 h treatment, mean ± SD; read-out: IC50 MDA-MB-231. The procedure: The data was calculated and presented as IC50 values in Table 1.
as §2

Structures are written as SMILES. Structures can show the parent of a compound that is named as a salt.

In article PMC6274419, “Synthesis and Anticancer Activities of Glycyrrhetinic Acid Derivatives” (Molecules, 2016) one finds melting point and IC50 data, which are given here for 19 compounds.

As for `COC(=O)/C=C/c1ccc(OC(=O)[C@@]2(C)CC[C@]3(C)CC[C@]4(C)C(=CC(=O)[C@@H]5[C@@]6(C)CC[C@H](OC(=O)[C@@H](N)CC[Se]C)C(C)(C)[C@@H]6CC[C@]54C)[C@@H]3C2)cc1` (as salt: hydrochloride) [Compound 46, trans-4-Hydroxycinnamic acid methyl ester 3β-(l-selenomethionine)-11-oxo-olean-12-en-30-oate hydrochloride], the melting point (in general, the temperature of the solid-liquid transition) lay within 218 to 221 °C.
The same measure, in the same setting: under `CCOC(=O)/C=C/c1ccc(OC(=O)[C@@]2(C)CC[C@]3(C)CC[C@]4(C)C(=CC(=O)[C@@H]5[C@@]6(C)CC[C@H](OC(=O)[C@@H](N)CCSC)C(C)(C)[C@@H]6CC[C@]54C)[C@@H]3C2)cc1` (as salt: hydrochloride) [Compound 47, trans-4-Hydroxycinnamic acid ethyl ester 3β-(l-methionine)-11-oxo-olean-12-en-30-oatehydrochloride] stands 202 to 204 °C; under `CCOC(=O)/C=C/c1ccc(OC(=O)[C@@]2(C)CC[C@]3(C)CC[C@]4(C)C(=CC(=O)[C@@H]5[C@@]6(C)CC[C@H](OC(=O)[C@@H](N)CC[Se]C)C(C)(C)[C@@H]6CC[C@]54C)[C@@H]3C2)cc1` (as salt: hydrochloride) [Compound 48, trans-4-Hydroxycinnamic acid ethyl ester 3β-(l-selenomethionine)-11-oxo-olean-12-en-30-oate hydrochloride], 208 to 211 °C; under `COC(=O)/C=C/c1ccc(OC)c(OC(=O)[C@@]2(C)CC[C@]3(C)CC[C@]4(C)C(=CC(=O)[C@@H]5[C@@]6(C)CC[C@H](OC(=O)[C@@H](N)CCSC)C(C)(C)[C@@H]6CC[C@]54C)[C@@H]3C2)c1` (as salt: hydrochloride) [Compound 49, Isoferulic acid methyl ester 3β-(l-methionine)-11-oxo-olean-12-en-30-oate hydrochloride], 199 to 201 °C.
On the same count and under the same terms, under `COC(=O)/C=C/c1ccc(OC)c(OC(=O)[C@@]2(C)CC[C@]3(C)CC[C@]4(C)C(=CC(=O)[C@@H]5[C@@]6(C)CC[C@H](OC(=O)[C@@H](N)CC[Se]C)C(C)(C)[C@@H]6CC[C@]54C)[C@@H]3C2)c1` (as salt: hydrochloride) [Compound 50, Isoferulic acid methyl ester 3β-(l-selenomethionine)-11-oxo-olean-12-en-30-oate hydrochloride] stands 201 to 203 °C; under `CCOC(=O)/C=C/c1ccc(OC)c(OC(=O)[C@@]2(C)CC[C@]3(C)CC[C@]4(C)C(=CC(=O)[C@@H]5[C@@]6(C)CC[C@H](OC(=O)[C@@H](N)CCSC)C(C)(C)[C@@H]6CC[C@]54C)[C@@H]3C2)c1` (as salt: hydrochloride) [Compound 51, Isoferulic acid ethyl ester 3β-(l-methionine)-11-oxo-olean-12-en-30-oate hydrochloride], 192 to 195 °C; under `CCOC(=O)/C=C/c1ccc(OC)c(OC(=O)[C@@]2(C)CC[C@]3(C)CC[C@]4(C)C(=CC(=O)[C@@H]5[C@@]6(C)CC[C@H](OC(=O)[C@@H](N)CC[Se]C)C(C)(C)[C@@H]6CC[C@]54C)[C@@H]3C2)c1` (as salt: hydrochloride) [Compound 52, Isoferulic acid ethyl ester 3β-(l-selenomethionine)-11-oxo-olean-12-en-30-oate hydrochloride], 196 to 198 °C.
Regarding `COC(=O)/C=C/c1cccc(OC(=O)[C@@]2(C)CC[C@]3(C)CC[C@]4(C)C(=CC(=O)[C@@H]5[C@@]6(C)CC[C@H](OC(=O)[C@@H](N)CCSC)C(C)(C)[C@@H]6CC[C@]54C)[C@@H]3C2)c1` (as salt: hydrochloride) [Compound 53, trans-3-Hydroxycinnamic acid methyl ester 3β-(l-methionine)-11-oxo-olean-12-en-30-oate hydrochloride], the melting point lay within 190 to 192 °C.
Same read-out and setting: with `COC(=O)/C=C/c1cccc(OC(=O)[C@@]2(C)CC[C@]3(C)CC[C@]4(C)C(=CC(=O)[C@@H]5[C@@]6(C)CC[C@H](OC(=O)[C@@H](N)CC[Se]C)C(C)(C)[C@@H]6CC[C@]54C)[C@@H]3C2)c1` (as salt: hydrochloride) [Compound 54, trans-3-Hydroxycinnamic acid methyl ester 3β-(l-selenomethionine)-11-oxo-olean-12-en-30-oate hydro-chloride] the figure was 194 to 196 °C; with `CCOC(=O)/C=C/c1cccc(OC(=O)[C@@]2(C)CC[C@]3(C)CC[C@]4(C)C(=CC(=O)[C@@H]5[C@@]6(C)CC[C@H](OC(=O)[C@@H](N)CCSC)C(C)(C)[C@@H]6CC[C@]54C)[C@@H]3C2)c1` (as salt: hydrochloride) [Compound 55, trans-3-Hydroxycinnamic acid ethyl ester 3β-(l-methionine)-11-oxo-olean-12-en-30-oate hydrochloride], 183 to 185 °C.
Same read-out and setting: under `CCOC(=O)/C=C/c1cccc(OC(=O)[C@@]2(C)CC[C@]3(C)CC[C@]4(C)C(=CC(=O)[C@@H]5[C@@]6(C)CC[C@H](OC(=O)[C@@H](N)CC[Se]C)C(C)(C)[C@@H]6CC[C@]54C)[C@@H]3C2)c1` (as salt: hydrochloride) [Compound 56, trans-3-Hydroxycinnamic acid ethyl ester 3β-(l-selenomethionine)-11-oxo-olean-12-en-30-oate hydrochloride] stands 191 to 194 °C.
Compound `COC(=O)/C=C/c1ccc(OC(=O)[C@@]2(C)CC[C@]3(C)CC[C@]4(C)C(=CC(=O)[C@@H]5[C@@]6(C)CC[C@H](O)C(C)(C)[C@@H]6CC[C@]54C)[C@@H]3C2)c(OC)c1` [Compound 17, Ferulic acid methyl ester 3β-hydroxy-11-oxo-olean-12-en-30-oate] returned a melting point of 229 to 231 °C. The IC50 (in general, the concentration at which inhibition is half-maximal) in data set [1] turned out to be 13.6 ± 0.93 µM. Besides, in data set [2], the IC50 is 17.3 ± 1.21 µM. Moreover, in data set [3], the half-maximal inhibitory concentration (IC50) is 5.03 ± 0.82 µM.
In the same order, the values of `CCOC(=O)/C=C/c1ccc(OC(=O)[C@@]2(C)CC[C@]3(C)CC[C@]4(C)C(=CC(=O)[C@@H]5[C@@]6(C)CC[C@H](O)C(C)(C)[C@@H]6CC[C@]54C)[C@@H]3C2)c(OC)c1` [Compound 18, Ferulic acid ethyl ester 3β-hydroxy-11-oxo-olean-12-en-30-oate] are 224 to 226 °C, 22.5 ± 1.26 µM, 22.8 ± 0.97 µM and 8.14 ± 0.76 µM.
In the same order, the values of `COC(=O)/C=C/c1ccc(OC(=O)[C@@]2(C)CC[C@]3(C)CC[C@]4(C)C(=CC(=O)[C@@H]5[C@@]6(C)CC[C@H](O)C(C)(C)[C@@H]6CC[C@]54C)[C@@H]3C2)cc1` [Compound 19, trans-4-Hydroxycinnamic acid methyl ester 3β-hydroxy-11-oxo-olean-12-en-30-oate] are 202 to 205 °C, 20.3 ± 1.47 µM, 29.6 ± 1.16 µM and 14.4 ± 0.52 µM.
In the same order, the values of `CCOC(=O)/C=C/c1ccc(OC(=O)[C@@]2(C)CC[C@]3(C)CC[C@]4(C)C(=CC(=O)[C@@H]5[C@@]6(C)CC[C@H](O)C(C)(C)[C@@H]6CC[C@]54C)[C@@H]3C2)cc1` [Compound 20, trans-4-Hydroxycinnamic acid ethyl ester 3β-hydroxy-11-oxo-olean-12-en-30-oate] are 195 to 196 °C, 24.4 ± 1.36 µM, 28.4 ± 0.87 µM and 14.5 ± 0.58 µM.
For the compound `COC(=O)/C=C/c1ccc(OC)c(OC(=O)[C@@]2(C)CC[C@]3(C)CC[C@]4(C)C(=CC(=O)[C@@H]5[C@@]6(C)CC[C@H](O)C(C)(C)[C@@H]6CC[C@]54C)[C@@H]3C2)c1` [Compound 21, Isoferulic acid methyl ester 3β-hydroxy-11-oxo-olean-12-en-30-oate], the melting point fell in the range of 215 to 217 °C. The IC50 in data set [1] is 8.54 ± 0.67 µM. In addition, the IC50 in data set [2] is 18.6 ± 0.54 µM. Moreover, in data set [3], the IC50 stood at 7.31 ± 0.16 µM.
In the same order, the values of `CCOC(=O)/C=C/c1ccc(OC)c(OC(=O)[C@@]2(C)CC[C@]3(C)CC[C@]4(C)C(=CC(=O)[C@@H]5[C@@]6(C)CC[C@H](O)C(C)(C)[C@@H]6CC[C@]54C)[C@@H]3C2)c1` [Compound 22, Isoferulic acid ethyl ester 3β-hydroxy-11-oxo-olean-12-en-30-oate] are 210 to 213 °C, 19.3 ± 1.01 µM, 21.1 ± 0.73 µM and 9.41 ± 1.03 µM.
The compound `COC(=O)/C=C/c1cccc(OC(=O)[C@@]2(C)CC[C@]3(C)CC[C@]4(C)C(=CC(=O)[C@@H]5[C@@]6(C)CC[C@H](O)C(C)(C)[C@@H]6CC[C@]54C)[C@@H]3C2)c1` [Compound 23, trans-3-Hydroxycinnamic acid methyl ester 3β-hydroxy-11-oxo-olean-12-en-30-oate] yielded a melting point of 188 to 190 °C. Further, the IC50 in data set [1] was found to be 14.9 ± 0.75 µM. For the same compound, in data set [2], the IC50 was found to be 24.1 ± 0.88 µM. Also, the IC50 in data set [3] amounted to 20.8 ± 1.2 µM.
For `CCOC(=O)/C=C/c1cccc(OC(=O)[C@@]2(C)CC[C@]3(C)CC[C@]4(C)C(=CC(=O)[C@@H]5[C@@]6(C)CC[C@H](O)C(C)(C)[C@@H]6CC[C@]54C)[C@@H]3C2)c1` [Compound 24, trans-3-Hydroxycinnamic acid ethyl ester 3β-hydroxy-11-oxo-olean-12-en-30-oate], in that order: 173 to 175 °C, 19.3 ± 0.98 µM, 22.9 ± 0.68 µM and 23.2 ± 1.07 µM.
